Reference: patent US6362369B1, “Phthalic acid diamide derivatives fluorine-containing aniline compounds as starting material, agricultural and horticultural insecticides, and a method for application of the insecticides” (Nihon Nohyaku Co., Ltd., priority 1997, dated 2002)

How the values were obtained:
[1] = test system: rice leafroller (Cnaphalocrocis medinalis); test: Insecticidal effect on rice leafroller (Test Example 3); format: in vivo; details: 500 ppm, 25° C., humidity 70%; for Insecticidal effect, Test Example 3: rice lamina immersed; for Insecticidal effect, Test Example 3 / Insecticidal effect on rice leafroller (Test Example 3), judged grade: four days after inoculation; for Insecticidal effect on rice leafroller (Test Example 3), judged grade / Insecticidal effect (Test Example 3), judged from mortality: rice lamina dip; for Insecticidal effect on rice leafroller (Test Example 3), judged grade: third-instar larvae; for Insecticidal effect (Test Example 3), judged from mortality: 4 days after inoculation
Outline: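 Insecticidal effect is judged by a predefined criterion from dead/alive counts four days after infesting air-dried lamina with third-instar larvae, kept on moistened filter paper at 25° C, 70% humidity.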

[2] = test system: diamondback moth (Plutella xylostella); test: Insecticidal effect on diamondback moth (Test Example 1); format: in vivo; details: for Insecticidal effect, Test Example 1 / Insecticidal effect (Test Example 1), judged from mortality: diamondback moth; for Insecticidal effect on diamondback moth (Test Example 1), judged grade: mortality judged according to the criterion shown in Test Example 1; for Insecticidal effect (Test Example 1), judged from mortality: judged by the criterion of Test Example 1
Outline: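 Oviposition by adults on Chinese cabbage seedling; immersion; air-dry; 25° C room. Count of hatched larvae at day 6 post-immersion → mortality → effect graded by criterion. Triplicate, 10 insects/group.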

[3] = third-instar larvae of rice leafroller
[4] = judged by the mortality criterion of Test Example 1
[5] = rice leafroller third-instar larvae
[6] = mortality judged by criterion of Test Example 1

Row | Compound | Insecticidal effect, Test Example 3 [1, 3] | Insecticidal effect, Test Example 1 [2, 4] | Insecticidal effect on rice leafroller (Test Example 3), judged grade [1] | Insecticidal effect on diamondback moth (Test Example 1), judged grade [2] | also measured
1 | CSc1ccc(NC(=O)c2c(Br)cccc2C(=O)NC(C)C)c(C)c1 [compound 333] | D (79-50) | A (100) | – | – | –
2 | CC(C)NC(=O)c1c(C(=O)Nc2ccccc2)cccc1[N+](=O)[O-] [compound 585] | – | – | A (100) | A (100) | –
3 | CC(C)NC(=O)c1ccccc1C(=O)Nc1ccc(C(F)(F)C(F)(F)F)cc1 [compound 889] | – | – | A (100) | A (100) | –
4 | Cc1ccc(Cl)cc1NC(=O)c1c(OC(F)F)cccc1C(=O)NC(C)C [compound 778] | – | – | A (100) | A (100) | –
5 | CC(C)NC(=O)c1cccc(F)c1C(=O)Nc1ccc(OC(F)(F)F)cc1Br [compound 563] | – | – | A (100) | A (100) | –
6 | Cc1ccc(Cl)cc1NC(=O)c1ccc(Cl)cc1C(=O)NC(C)C [compound 178] | A (100) | A (100) | – | – | –
7 | COCCNC(=O)c1cccc(I)c1C(=O)Nc1ccc(C(F)(F)C(F)(F)F)cc1C [compound 982] | – | – | – | – | Insecticidal effect, Test Example 3 [1, 5]: C (89-80); Insecticidal effect, Test Example 1 [2, 6]: A (100)
8 | Cc1cc(Cl)ccc1NC(=O)c1c(OC(F)F)cccc1C(=O)NC(C)C [compound 777] | – | – | D (79-50) | A (100) | –
9 | Cc1cc(OC(C)C)ccc1NC(=O)c1cccc([N+](=O)[O-])c1C(=O)NC(C)C [compound 690] | – | – | A (100) | A (100) | –
10 | Cc1cc(OC(F)(F)C(F)F)ccc1NC(=O)c1c(Br)cccc1C(=O)NC(C)C [compound 330] | A (100) | A (100) | – | – | –
11 | Cc1cc(Br)ccc1NC(=O)c1c(Cl)cccc1C(=O)NC(C)C [compound 216] | A (100) | A (100) | – | – | –
12 | Cc1ccc(Cl)cc1NC(=O)c1ccccc1C(=O)NC(C)C [compound 51] | A (100) | A (100) | – | – | –
13 | CC(C)NC(=O)c1cccc(Cl)c1C(=O)Nc1ccc(F)cc1Cl [compound 211] | A (100) | A (100) | – | – | –
14 | Cc1cc(C(F)(F)C(F)(F)F)ccc1NC(=O)c1c(C)cccc1C(=O)NC(C)(C)C [compound 956] | – | – | – | – | Insecticidal effect, Test Example 3 [1, 5]: A (100); Insecticidal effect, Test Example 1 [2, 6]: A (100)
15 | Cc1cc(C(F)(F)C(F)(F)F)ccc1NC(=O)c1c(Cl)cccc1C(=O)NCc1ccc(Cl)c(Cl)c1 [compound 1352] | – | – | – | – | Insecticidal effect, Test Example 3 [1, 5]: A (100); Insecticidal effect, Test Example 1 [2, 6]: A (100)
16 | Cc1cc(OC(F)(F)C(F)(F)c2ccccc2)ccc1NC(=O)c1cccc([N+](=O)[O-])c1C(=O)NC(C)C [compound 1089] | – | – | – | – | Insecticidal effect, Test Example 3 [1, 5]: A (100); Insecticidal effect, Test Example 1 [2, 6]: A (100)
17 | Cc1cc(C(F)(F)C(F)(F)F)ccc1NC(=O)c1cccc(Cl)c1C(=O)NCCCc1ccccc1 [compound 1331] | – | – | – | – | Insecticidal effect, Test Example 3 [1, 5]: A (100); Insecticidal effect, Test Example 1 [2, 6]: A (100)
18 | Cc1ccc(Cl)cc1NC(=O)c1cc(Cl)ccc1C(=O)NC(C)C [compound 191] | A (100) | A (100) | – | – | –
19 | Cc1cc(C(F)(F)C(F)(F)F)ccc1NC(=O)c1cccc(Cl)c1C(=O)Nc1ccco1 [compound 1390] | – | – | – | – | Insecticidal effect, Test Example 3 [1, 5]: A (100); Insecticidal effect, Test Example 1 [2, 6]: A (100)
20 | Cc1ccc(Cl)cc1NC(=O)c1cc(OC(F)F)ccc1C(=O)NC(C)C [compound 776] | – | – | D (79-50) | B (99-90) | –
21 | Cc1cc(OC(F)(F)C(Cl)(Cl)Cl)ccc1NC(=O)c1c(F)cccc1C(=O)NC(C)C [compound 552] | – | – | B (99-90) | A (100) | –

Row | Compound | Insecticidal effect, Test Example 3 [1, 3] | Insecticidal effect, Test Example 1 [2, 4] | Insecticidal effect on rice leafroller (Test Example 3), judged grade [1] | Insecticidal effect on diamondback moth (Test Example 1), judged grade [2] | also measured
22 | CC(C)NC(=O)c1cccc(Br)c1C(=O)Nc1ccc(OC(F)(F)F)cc1 [Compound No. 302, 6-bromo-N^1-(4-trifluoromethoxyphenyl)-N^2-isopropylphthalic acid diamide] | D (79-50) | A (100) | – | – | –
23 | Cc1cc(C(F)(F)C(F)(F)F)ccc1NC(=O)c1c(I)cccc1C(=O)NC(C)c1ccccn1 (stereo not drawn) [compound 1778] | – | – | – | – | Insecticidal effect (Test Example 3), judged from mortality [1, 3]: A (100); Insecticidal effect (Test Example 1), judged from mortality [2]: A (100)
24 | Cc1cc(OC(F)(F)F)ccc1NC(=O)c1c(Br)cccc1C(=O)NC(C)C [compound 326] | A (100) | A (100) | – | – | –
25 | Cc1ccc(Cl)cc1NC(=O)c1cccc(C(F)(F)F)c1C(=O)NC(C)C [compound 755] | – | – | A (100) | A (100) | –
26 | COCCCNC(=O)c1cccc(I)c1C(=O)Nc1ccc(C(F)(F)C(F)(F)F)cc1C [compound 986] | – | – | – | – | Insecticidal effect, Test Example 3 [1, 5]: A (100); Insecticidal effect, Test Example 1 [2, 6]: A (100)
27 | CSCOc1ccc(NC(=O)c2ccccc2C(=O)NC(C)C)c(C)c1 [compound 70] | A (100) | A (100) | – | – | –
28 | Cc1cc(C(F)(F)C(F)(F)F)ccc1NC(=O)c1c(I)cccc1C(=O)NC(C)CO (stereo not drawn) [compound 1465] | – | – | – | – | Insecticidal effect (Test Example 3), judged from mortality [1, 3]: A (100); Insecticidal effect (Test Example 1), judged from mortality [2]: A (100)
29 | CC(C)NC(=O)c1c(Br)cccc1C(=O)Nc1ccc2c(c1)OCO2 [compound 300] | A (100) | A (100) | – | – | –
30 | Cc1cc(OC(F)F)ccc1NC(=O)c1c(Br)ccc(Br)c1C(=O)NC(C)C [compound 340] | A (100) | A (100) | – | – | –
31 | Cc1cc(OCC(F)(F)F)ccc1NC(=O)c1cccc([N+](=O)[O-])c1C(=O)NC(C)C [compound 697] | – | – | A (100) | A (100) | –
32 | COc1ccccc1NC(=O)c1cccc([N+](=O)[O-])c1C(=O)NC(C)C [compound 612] | – | – | D (79-50) | A (100) | –
33 | Cc1cc(C(F)(F)C(F)(F)F)ccc1NC(=O)c1c(Cl)cccc1C(=O)NCc1cccnc1 [compound 1420] | – | – | – | – | Insecticidal effect, Test Example 3 [1, 5]: A (100); Insecticidal effect, Test Example 1 [2, 6]: A (100)
34 | COc1ccc(NC(=O)c2c(Br)cccc2C(=O)NC(C)C)c(C)c1 [compound 322] | B (99-90) | A (100) | – | – | –
35 | CC(C)(C)NC(=O)c1ccccc1C(=O)Nc1ccccc1 [compound 840] | – | – | D (79-50) | A (100) | –
36 | CN(C(=O)c1ccccc1C(=O)NC(C)(C)C)c1ccc(OC(F)(F)F)cc1 [compound 933] | – | – | A (100) | A (100) | –
37 | Cc1cc(OC(F)(F)Br)ccc1NC(=O)c1c(F)cccc1C(=O)NC(C)C [compound 565] | – | – | A (100) | A (100) | –
38 | CC(C)NC(=O)c1cccc(Cl)c1C(=O)Nc1ccc(OC(F)(F)F)cc1Cl [compound 234] | A (100) | A (100) | – | – | –
39 | CCCNC(=O)c1c(Cl)cccc1C(=O)Nc1ccc(C(F)(F)C(F)(F)C(F)(F)F)cc1F [compound 1493] | – | – | – | – | Insecticidal effect (Test Example 3), judged from mortality [1, 3]: A (100); Insecticidal effect (Test Example 1), judged from mortality [2]: A (100)
40 | CCC(C)(C)NC(=O)c1c(F)cccc1C(=O)Nc1ccc(OC(F)F)cc1C [compound 1155] | – | – | – | – | Insecticidal effect, Test Example 3 [1, 5]: A (100); Insecticidal effect, Test Example 1 [2, 6]: A (100)
41 | Cc1cc(Cl)ccc1NC(=O)c1c(Cl)ccc(Cl)c1C(=O)NC(C)C [compound 259] | D (79-50) | A (100) | – | – | –
42 | CCN(CC)C(=O)c1cc(Cl)cc(I)c1C(=O)Nc1ccc(C(F)(F)C(F)(F)F)cc1C [compound 1281] | – | – | – | – | Insecticidal effect, Test Example 3 [1, 5]: A (100); Insecticidal effect, Test Example 1 [2, 6]: A (100)
